In patent publication US10851065B2 (Eisai R&D Management Co., Ltd., priority 2015, dated 2020) one finds GI50 data, which are given here for 19 compounds.

SMILES strings stand for the structures.

Assay [1] has as its system MCF7-Y537S cells (MCF7 ER-alpha Y537S mutant). Nature of the assay: In vitro proliferation (viability) assay, CellTiter-Glo, MCF7-Y537S cells. In kind it is cell-based. The following applies: Homo sapiens; MCF7-Y537S cells, 6 days, CTG vs day 0; mean ± SD-type spread (n); read-out: GI50 MUT (Y537S). The procedure:
(§1) MCF7 BUS cells (Coser, et al., (2003) PNAS 100(24): 13994-13999) were maintained in Dulbecco's Modified Eagle Medium supplemented with 10% FBS, 4 mM L-glutamine and 1× non-essential amino acids. Lenti-X 293T cells (Clontech, Cat #632180) were routinely cultured in Dulbecco's Modified Eagle Medium supplemented with 10% FBS.
(§2) The QuikChange II XL Site-Directed Mutagenesis Kit (Agilent Technologies, Cat #200523) was used to generate Y537S, Y537C, Y537N and D538G mutations within the ERα exon 8. Wild-type ESR1 cDNA (GeneCopoeia Inc., Cat #GC-A0322, accession no. NM 000125) was used as a template with the following mutagenesis primers (where the underlined nucleotides represent site mutations); Y537S: F-AAGAACGTGGTGCCCCTCTCTGACCTGCTGCTGGAGATG (SEQ ID NO: 1), R-CATCTCCAGCAGCAGGTCAGAGAGGGGCACCACGTTCTT (SEQ ID NO: 2); Y537N: F-AAGAACGTGGTGCCCCTCAATGACCTGCTGCTGGAGATG (SEQ ID NO: 3), R-CATCTCCAGCAGCAGGTCATTGAGGGGCACCACGTTCTT (SEQ ID NO: 4); Y537C: F-AAGAACGTGGTGCCCCTCTGTGACCTGCTGCTGGAGATG (SEQ ID NO: 5), R-CATCTCCAGCAGCAGGTCACAGAGGGGCACCACGTTCTT (SEQ ID NO: 6); D538G: F-AACGTGGTGCCCCTCTATGGCCTGCTGCTGGAGATGCTG (SEQ ID NO: 7), R-CAGCATCTCCAGCAGCAGGCCATAGAGGGGCACCACGTT (SEQ ID NO: 8). WT and mutant ESR1 cDNAs were cloned into the designation lentiviral vector pLenti6.3/V5-Dest (Invitrogen, Cat #V533-06). To make lentivirus, DNAs (WT and mutant ESR1) were co-transfected with packaging plasmids into Lenti-X 293T cells using TransIT (Mirus, Cat #MIR 2700). 48 h post-transfection, virus containing media was filtered and added to MCF7 cells in the presence of 8 µg/ml polybrene overnight. Two days following infection, cells were placed under selection with 10 μg/ml blasticidin for 2 weeks for stable expression.
(§3) MCF7-WT and -Y537S cells were seeded at 1500 cells/well in black-walled 96-well plates (assay plates, Costar, Cat #3904). In parallel, cells were also seeded in a separate 96-well plate (8 wells/cell line, control plate) for which a CTG (CellTiter-Glo® Luminescent Viability Assay, Promega, Cat #G7572) was measured the following day (day 0 reading). The day 0 reading was used for the GI50 calculation at the termination of the experiment. The day following seeding, compounds were added to assay plates. Briefly, a 1:4 serial dilution was prepared in DMSO at 200× final concentration for a total of 10 concentrations (9 dilutions containing compound and one is DMSO only). Serially diluted compounds were pipetted into medium to prepare a compound-medium mix at 10× final concentration. 10 μl of compound-medium mix was added to MCF7-WT and -Y537S cells at 3 wells/concentration (triplicate for each concentration). On day 3, media/compound was removed and replaced with fresh media/compound as described above. On day 6, CTG was measured and compared to day 0 readings from control plate to assess GI50.

Assay [2] has as its system MCF7-WT cells (MCF7 ER-alpha wildtype). Nature of the assay: In vitro proliferation (viability) assay, CellTiter-Glo, MCF7-WT cells. In kind it is cell-based. The following applies: Homo sapiens; MCF7-WT cells, 6 days, CTG vs day 0; mean ± SD-type spread (n); read-out: GI50 WT. The procedure:
as §1, §2, §3

In the case of `CC/C(=C(/c1ccc(OCCNC/C=C\C(=O)N(C)C)cc1)c1ccc2[nH]ncc2c1)c1ccccc1` [Compound 22, (Z)-4-((2-(4-((E)-1-(1H-indazol-5-yl)-2-phenylbut-1-en-1-yl)phenoxy)ethyl)amino)-N,N-dimethylbut-2-enamide], the values for the 50% growth inhibitory concentration (GI50) in assay [1] and in assay [2] were 21.6 ± 0.26 nM and 2.42 ± 1.95 nM, respectively.

`O=C(/C=C/CNCCOc1ccc(/C(=C(\c2ccccc2)C2CCC2)c2ccc3[nH]ncc3c2)cc1)N1CCOCC1` [Compound 23, (E)-4-((2-(4-((E)-2-cyclobutyl-1-(1H-indazol-5-yl)-2-phenylvinyl)phenoxy)ethyl)amino)-1-morpholinobut-2-en-1-one]: the results for the GI50 in assay [1] and in assay [2] were 24.2 ± 6.57 nM and 1.52 ± 1.05 nM, respectively.

Consider `CN(C)C(=O)/C=C/CNCCOc1ccc(/C(=C(\c2ccccc2)C2CCC2)c2ccc3[nH]ncc3c2F)cc1` [Compound 24, (E)-4-((2-(4-((E)-2-cyclobutyl-1-(4-fluoro-1H-indazol-5-yl)-2-phenylvinyl)phenoxy)ethyl)amino)-N,N-dimethylbut-2-enamide], for which the results for the GI50 in assay [1] and in assay [2] were 19.9 ± 3.58 nM and 1.05 ± 0.3 nM, respectively.

With `CC/C(=C(/c1ccc(OCCNC/C=C/C(=O)N(C)C)nc1)c1ccc2[nH]ncc2c1)c1ccccc1` [Compound 25, (E)-4-((2-((5-((Z)-1-(1H-indazol-5-yl)-2-phenylbut-1-en-1-yl)pyridin-2-yl)oxy)ethyl)amino)-N,N-dimethylbut-2-enamide], the GI50 was 19.6 ± 4.26 nM in assay [1] and 1.15 ± 0.3 nM in assay [2].

As to `CC/C(=C(/c1ccc(OCCNC/C=C/C(=O)N(C)CCO)cc1)c1ccc2[nH]ncc2c1)c1ccccc1C` [Compound 26, (E)-4-((2-(4-((E)-1-(1H-indazol-5-yl)-2-(o-tolyl)but-1-en-1-yl)phenoxy)ethyl)amino)-N-(2-hydroxyethyl)-N-methylbut-2-enamide], the concentration for 50% growth inhibition (GI50) amounted to 32.5 ± 16.7 nM in assay [1] and 2.18 ± 0.87 nM in assay [2].

In the case of `CC/C(=C(/c1ccc(OCCNC/C=C/C(=O)N(C)CCO)cc1)c1ccc2[nH]nc(F)c2c1)c1ccc(F)cc1Cl` [Compound 28, (E)-4-((2-(4-((E)-2-(2-chloro-4-fluorophenyl)-1-(3-fluoro-1H-indazol-5-yl)but-1-en-1-yl)phenoxy)ethyl)amino)-N-(2-hydroxyethyl)-N-methylbut-2-enamide], the values for the GI50 in assay [1] and in assay [2] were 69.7 nM and 3.16 nM, respectively.

For `CC/C(=C(/c1ccc(OCCNC/C=C/C(=O)N(C)C)cc1)c1ccc2[nH]ncc2c1)c1ccc(C(C)C)cc1` [Compound 29, (E)-4-((2-(4-((E)-1-(1H-indazol-5-yl)-2-(4-isopropylphenyl)but-1-en-1-yl)phenoxy)ethyl)amino)-N,N-dimethylbut-2-enamide], the results for the GI50 in assay [1] and in assay [2] were 58.7 nM and 3.37 nM, respectively.

Turning to `CN(C)C(=O)/C=C/CNCCOc1ccc(/C(=C(/CCCl)c2ccccc2)c2ccc3[nH]ncc3c2)cc1` [Compound 30, (E)-4-((2-(4-((E)-4-chloro-1-(1H-indazol-5-yl)-2-phenylbut-1-en-1-yl)phenoxy)ethyl)amino)-N,N-dimethylbut-2-enamide], the values for the concentration for 50% growth inhibition (GI50) in assay [1] and in assay [2] were 61.3 ± 9.98 nM and 2.74 ± 1.06 nM, respectively.

As to `CC/C(=C(/c1ccc(OCCNC/C=C/C(=O)N(C)C)cc1)c1ccc2[nH]ncc2c1)c1ccccc1OC` [Compound 31], the 50% growth inhibitory concentration (GI50) in assay [1] is 13.1 nM; in assay [2], 0.83 nM.

Consider `CC/C(=C(/c1ccc(OCCNC/C=C/C(=O)N(C)C)cc1)c1ccc2[nH]ncc2c1)c1ccccc1OC(F)F` [Compound 32, (E)-4-((2-(4-((E)-2-(2-(difluoromethoxy)phenyl)-1-(1H-indazol-5-yl)but-1-en-1-yl)phenoxy)ethyl)amino)-N,N-dimethylbut-2-enamide], for which the concentration for 50% growth inhibition (GI50) in assay [1] turned out to be 22.9 nM; in assay [2], 1.28 nM.

As to `CC/C(=C(/c1ccc(OCCNC/C=C/C(=O)N(C)C)cc1)c1ccc2[nH]ncc2c1)c1ccccc1OC(F)(F)F` [Compound 33, (E)-4-((2-(4-((E)-1-(1H-indazol-5-yl)-2-(2-(trifluoro-methoxy)phenyl)but-1-en-1-yl)phenoxy)ethyl)amino)-N,N-dimethylbut-2-enamide], the figures for the GI50 in assay [1] and in assay [2] were 29.3 nM and 2.5 nM, respectively.

Turning to `CC/C(=C(/c1ccc(OCCNC/C=C/C(=O)N(C)C)cc1)c1ccc2[nH]ncc2c1)c1ccccc1C(C)C` [Compound 34, (E)-4-((2-(4-((E)-1-(1H-indazol-5-yl)-2-(2-isopropylphenyl)but-1-en-1-yl)phenoxy)ethyl)amino)-N,N-dimethylbut-2-enamide], the 50% growth inhibitory concentration (GI50) turned out to be 93.6 nM in assay [1] and 10.5 nM in assay [2].

Take `CC/C(=C(/c1ccc(OCCNC/C=C/C(=O)N(C)C)cc1)c1ccc2[nH]ncc2c1)c1ccccc1CC` [Compound 35, (E)-4-((2-(4-((E)-2-(2-ethylphenyl)-1-(1H-indazol-5-yl)but-1-en-1-yl)phenoxy)ethyl)amino)-N,N-dimethylbut-2-enamide]: the concentration for 50% growth inhibition (GI50) in assay [1] came to 47.8 ± 15.6 nM; in assay [2], 6.22 ± 0.58 nM.

On to `CC/C(=C(/c1ccc(OCCNC/C=C/C(=O)N(C)C)cc1)c1ccc2[nH]ncc2c1)c1ccccc1C` [Compound 36, (E)-4-((2-(4-((E)-1-(1H-indazol-5-yl)-2-(o-tolyl)but-1-en-1-yl)phenoxy)ethyl)amino)-N,N-dimethylbut-2-enamide], for which the GI50 in assay [1] stood at 25 ± 21.9 nM; in assay [2], 4.96 ± 3.1 nM.

For the compound `CC/C(=C(/c1cnc(OCCNC/C=C/C(=O)N(C)C)nc1)c1ccc2[nH]ncc2c1)c1ccccc1` [Compound 38, (E)-4-((2-((5-((Z)-1-(1H-indazol-5-yl)-2-phenylbut-1-en-1-yl)pyrimidin-2-yl)oxy)ethyl)amino)-N,N-dimethylbut-2-enamide], the GI50 was found to be 159 ± 128 nM in assay [1] and 8.23 ± 5.32 nM in assay [2].

As for `O=C(/C=C/CNCCOc1ccc(/C(=C(\c2ccccc2)C2CCC2)c2ccc3[nH]ncc3c2)cc1)N1CCC1` [Compound 39, (E)-1-(azetidin-1-yl)-4-((2-(4-((E)-2-cyclobutyl-1-(1H-indazol-5-yl)-2-phenylvinyl)phenoxy)ethyl)amino)but-2-en-1-one], the 50% growth inhibitory concentration (GI50) in assay [1] came to 31.8 ± 4.85 nM; in assay [2], 1.79 ± 0.47 nM.

`O=C(/C=C/CNCCOc1ccc(/C(=C(\c2ccccc2)C2CCC2)c2ccc3[nH]nc(F)c3c2)cc1)N1CCC1` [Compound 40, (E)-1-(azetidin-1-yl)-4-((2-(4-((E)-2-cyclobutyl-1-(3-fluoro-1H-indazol-5-yl)-2-phenylvinyl)phenoxy)ethyl)amino)but-2-en-1-one]: the concentration for 50% growth inhibition (GI50) is 94.5 ± 20.8 nM in assay [1] and 7.52 ± 4.52 nM in assay [2].

`CN(CCO)C(=O)/C=C/CNCCOc1ccc(/C(=C(\c2ccccc2)C2CCC2)c2ccc3[nH]ncc3c2)cc1` [Compound 41, (E)-4-((2-(4-((E)-2-cyclobutyl-1-(1H-indazol-5-yl)-2-phenylvinyl)phenoxy)ethyl)amino)-N-(2-hydroxyethyl)-N-methylbut-2-enamide]: the GI50 was 66.3 nM in assay [1] and 3.84 nM in assay [2].

For the compound `Cc1ccccc1/C(=C(\c1ccc(OCCNC/C=C/C(=O)N2CCC2)cc1)c1ccc2[nH]ncc2c1)C1CCC1` [Compound 42, (E)-1-(azetidin-1-yl)-4-((2-(4-((E)-2-cyclobutyl-1-(1H-indazol-5-yl)-2-(o-tolyl)vinyl)phenoxy)ethyl)amino)but-2-en-1-one], the GI50 in assay [1] turned out to be 69.4 ± 29.1 nM; in assay [2], 2.68 ± 1.66 nM.

What is called GI50 is the concentration giving 50% growth inhibition.
